Test results from patent US7407990B2, “Therapeutic Agents” (Knoll GmbH, priority 1999, dated 2008).

Test system: male rhesus monkeys (Macaca mulatta)
Assay: Cocaine discrimination testing (Study 1), pretreatment protocol
Format: in vivo
Conditions: cocaine alone
Experimental: Subjects: The subjects are four male rhesus monkeys (Macaca mulatta), weighing 5.7-8.1 kg and maintained on a diet of 3-4 monkey biscuits and one piece of fresh fruit per day. During the week, all food is delivered after the experimental session, whereas at weekends, food is delivered between 9 a.m. and noon. Water is freely available at all times. The monkeys are housed in a humidity and temperature controlled room with a 12 h light-dark cycle (lights on from 7 a.m. to 7 p.m.). Apparatus: Each monkey is housed individually in a well-ventilated, stainless steel chamber (56×71×69 cm) which includes an operant panel (28×28 cm) mounted on the front wall. Three response keys are arranged in a horizontal row 3.2 cm from the top of the operant panel. Each key can be transilluminated by red or green stimulus lights (Superbright LEDs). An externally mounted pellet dispenser delivers 1 g fruit-flavoured food pellets to a food receptacle beneath the operant response panel. A computer, located in a separate room, controls the operant panels and data collection. […]
During each response period, 3 dependent variables are determined: • 1) Percent injection-appropriate responding prior to delivery of the first reinforcer. • 2) Percent injection-appropriate responding for the entire response period • 3) Response Rate.
Monkeys meeting the following criteria during the training day immediately proceeding the test day and in at least 6 of 7 consecutive training sessions before this are used for discrimination testing: • 1) the percent injection-appropriate responding prior to delivery of the first reinforcer is ≧80% for all cycles; • 2) the percent injection-appropriate responding for the entire cycle is ≧90% for all cycles; • 3) Response rates during saline training cycles are >0.5 responses per second. […] In this protocol, a cumulative dose-effect curve for cocaine (0.013-1.3 mg/kg) is determined either alone or following pretreatment with the test compound, which is administered 20 min before the first dose of cocaine. […]

COC(=O)[C@H]1[C@@H](OC(=O)c2ccccc2)C[C@@H]2CC[C@H]1N2C.Cl [cocaine, Cocaine hydrochloride]
response rates (1.3 mg/kg): usually decreases response rates | cocaine-appropriate responding (cumulative 0.013-1.3 mg/kg, all four monkeys): dose-dependent increase in cocaine-appropriate responding | substitution for training stimulus (training dose 0.4 mg/kg, all monkeys): Complete substitution
